# Species: Rattus norvegicus
# Experiment: DrugMatrix - Regimen: Daily Repeat
# Assay type: toxicity, organism-based, Sprague-Dawley
# Design: regimen Daily Repeat, gender Male, age 6-8 weeks
# Details: in vivo, sc, route subcutaneous, […]; for ABSOLUTE MONOCYTE / ABSOLUTE SEGMENTED NEUTROPHIL / BASOPHIL / EOSINOPHIL / ERYTHROCYTE COUNT / HEMATOCRIT / HEMOGLOBIN / LEUKOCYTE COUNT / LYMPHOCYTE / MEAN CORPUSCULAR HEMOGLOBIN / MEAN CORPUSCULAR HEMOGLOBIN CONCENTRATION / MONOCYTE / NEUTROPHIL / NUCLEATED RED BLOOD CELLS / PLATELET COUNT / ABSOLUTE BASOPHIL / ABSOLUTE EOSINOPHIL / ABSOLUTE LYMPHOCYTE: tissue Blood
# [1] = 10 mg/kg, 120 h, dose level Low, time 5 day
# [2] = 10 mg/kg, 120 h, tissue Plasma, dose level Low, time 5 day
# [3] = 100 mg/kg, 72 h, dose level High, time 3 day
# [4] = 100 mg/kg, 72 h, tissue Plasma, dose level High, time 3 day
# [5] = 100 mg/kg, 120 h, dose level High, time 5 day
# [6] = 100 mg/kg, 120 h, tissue Plasma, dose level High, time 5 day
substance,measurement,setting,value
COBALT(II) ACETYLACETONATE,ABSOLUTE MONOCYTE,[1],35.33 CELLS/uL
same,ABSOLUTE SEGMENTED NEUTROPHIL,[1],1425 CELLS/uL
same,BASOPHIL,[1],0%
same,EOSINOPHIL,[1],1%
same,ERYTHROCYTE COUNT,[1],5.83 x10E6/uL
same,HEMATOCRIT,[1],36.63%
same,HEMOGLOBIN,[1],13.67 G/DL
same,LEUKOCYTE COUNT,[1],11.87 x10E3/uL
same,LYMPHOCYTE,[1],86.67%
same,MEAN CORPUSCULAR HEMOGLOBIN,[1],23.47 pg
same,MEAN CORPUSCULAR HEMOGLOBIN CONCENTRATION,[1],37.3 G/DL
same,MONOCYTE,[1],0.33%
same,NEUTROPHIL,[1],12%
same,NUCLEATED RED BLOOD CELLS,[1],0 /100WBC
same,PLATELET COUNT,[1],1357.67 x10E3/uL
same,ALANINE AMINOTRANSFERASE,[2],36.67 u/L
same,ALBUMIN,[2],4.6 G/DL
same,ALKALINE PHOSPHATASE,[2],390 u/L
same,ASPARTATE AMINOTRANSFERASE,[2],87 u/L
same,BLOOD UREA NITROGEN,[2],22 mg/dL
same,CARBON DIOXIDE,[2],21.67 mmol/L
same,CHOLESTEROL,[2],77 mg/dL
same,CREATINE PHOSPHOKINASE,[2],460.67 u/L
same,CREATININE,[2],0.24 mg/dL
same,GLUCOSE,[2],176.67 mg/dL
same,LACTATE DEHYDROGENASE,[2],122.67 u/L
same,PHOSPHORUS,[2],13.67 mg/dL
same,POTASSIUM,[2],6.74 MEQ/L
same,TOTAL BILIRUBIN,[2],0.2 mg/dL
same,TOTAL PROTEIN,[2],6.7 G/DL
same,URIC ACID,[2],2.8 mg/dL
same,ABSOLUTE BASOPHIL,[3],0 CELLS/uL
same,ABSOLUTE EOSINOPHIL,[3],73 CELLS/uL
same,ABSOLUTE LYMPHOCYTE,[3],8659.67 CELLS/uL
same,ABSOLUTE MONOCYTE,[3],133.33 CELLS/uL
same,ABSOLUTE SEGMENTED NEUTROPHIL,[3],2500.67 CELLS/uL
same,BASOPHIL,[3],0%
same,EOSINOPHIL,[3],0.67%
same,ERYTHROCYTE COUNT,[3],5.76 x10E6/uL
same,HEMOGLOBIN,[3],13.3 G/DL
same,LEUKOCYTE COUNT,[3],11.37 x10E3/uL
same,LYMPHOCYTE,[3],75.67%
same,MEAN CORPUSCULAR HEMOGLOBIN,[3],23.1 pg
same,MEAN CORPUSCULAR HEMOGLOBIN CONCENTRATION,[3],37.2 G/DL
same,MONOCYTE,[3],1%
same,NEUTROPHIL,[3],22.67%
same,NUCLEATED RED BLOOD CELLS,[3],0 /100WBC
same,PLATELET COUNT,[3],1207 x10E3/uL
same,ALANINE AMINOTRANSFERASE,[4],57.33 u/L
same,ALKALINE PHOSPHATASE,[4],376.67 u/L
same,ASPARTATE AMINOTRANSFERASE,[4],106 u/L
same,BLOOD UREA NITROGEN,[4],17.67 mg/dL
same,CARBON DIOXIDE,[4],26.33 mmol/L
same,CHLORIDE,[4],109 MEQ/L
same,CHOLESTEROL,[4],52.33 mg/dL
same,CREATINE PHOSPHOKINASE,[4],315 u/L
same,CREATININE,[4],0.2 mg/dL
same,LACTATE DEHYDROGENASE,[4],200 u/L
same,LIPASE,[4],9 u/L
same,PHOSPHORUS,[4],10.3 mg/dL
same,POTASSIUM,[4],5.87 MEQ/L
same,TOTAL BILIRUBIN,[4],0.2 mg/dL
same,TOTAL PROTEIN,[4],6 G/DL
same,URIC ACID,[4],0.97 mg/dL
same,ABSOLUTE BASOPHIL,[5],0 CELLS/uL
same,ABSOLUTE EOSINOPHIL,[5],235.33 CELLS/uL
same,ABSOLUTE LYMPHOCYTE,[5],15696 CELLS/uL
same,ABSOLUTE SEGMENTED NEUTROPHIL,[5],4063 CELLS/uL
same,BASOPHIL,[5],0%
same,ERYTHROCYTE COUNT,[5],5.59 x10E6/uL
same,HEMATOCRIT,[5],34.73%
same,HEMOGLOBIN,[5],13.17 G/DL
same,LEUKOCYTE COUNT,[5],20.17 x10E3/uL
same,LYMPHOCYTE,[5],77%
same,MEAN CORPUSCULAR HEMOGLOBIN,[5],23.57 pg
same,MEAN CORPUSCULAR HEMOGLOBIN CONCENTRATION,[5],37.9 G/DL
same,MONOCYTE,[5],1%
same,NEUTROPHIL,[5],20.67%
same,NUCLEATED RED BLOOD CELLS,[5],0 /100WBC
same,PLATELET COUNT,[5],1455 x10E3/uL
same,ALANINE AMINOTRANSFERASE,[6],47.67 u/L
same,ALBUMIN,[6],3.9 G/DL
same,ALKALINE PHOSPHATASE,[6],334.67 u/L
same,ASPARTATE AMINOTRANSFERASE,[6],110.33 u/L
same,BLOOD UREA NITROGEN,[6],19 mg/dL
same,CARBON DIOXIDE,[6],16 mmol/L
same,CHLORIDE,[6],111.67 MEQ/L
same,CHOLESTEROL,[6],47.67 mg/dL
same,CREATINE PHOSPHOKINASE,[6],488.33 u/L
same,CREATININE,[6],0.18 mg/dL
same,LACTATE DEHYDROGENASE,[6],467.33 u/L
same,LIPASE,[6],8.33 u/L
same,PHOSPHORUS,[6],12.73 mg/dL
same,POTASSIUM,[6],7.45 MEQ/L
same,TOTAL BILIRUBIN,[6],0.23 mg/dL
same,TOTAL PROTEIN,[6],6.1 G/DL
same,URIC ACID,[6],3.1 mg/dL

# Reference: ChEMBL document CHEMBL3885881, “DrugMatrix”
